Laboratory results taken from US10280170B2, “Substituted 4,5,6,7-tetrahydro-pyrazolo[1,5-a]pyrazine derivatives and 5,6,7,8-tetrahydro-4H-pyrazolo[1,5-a][1,4]diazepine derivatives as Ros1 inhibitors” (Janssen Pharmaceutica NV, priority 2014, dated 2019).
Where two headings read alike, the source gives them in different places.

Experiments:
Ros1 enzyme = target: T1, Ros1 enzyme (Homo sapiens, UniProt P08922); experiment: Ros1 enzymatic assay; type: biochemical; settings: Ros1 enzymatic assay; read-out: ROS1 pIC50 (converted)
T1 construct: 0.5 μg/ml Ros1 enzyme
In short: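 Ros1 (0.5 μg/ml in enzyme mix) was combined with a substrate mix of biotinylated IRS-Tide (6 μg/ml) and 20 μM ATP spiked with 33P-ATP in 50 mM Tris-HCl pH7.5, 10 mM MgCl2, 1 mM EGTA, 0.01% Tween-20. Reaction ran 120 min at room temperature before EDTA stop.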

[1] = target: T2, Ba/F3 cells containing Ros1 wild-type protein (Homo sapiens, UniProt P08922, cells depend on it, form not given); experiment: Ba/F3-Ros1 cell proliferation assay, wild-type Ros1; type: cell-based, murine; settings: without IL-3
T2 construct: The background only speaks of 'a number of different unrelated proteins' and names SLC34A2-ROS1 for HCC78 cells
In short: (§1)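 Ba/F3 cells expressing wild-type, L2026M or G2032R Ros1 (20000 per well) were incubated with DMSO-solubilized compounds in phenol red-free RPMI-1640 with 10% FBS and 2 mM L-glutamine at 37 °C, 5% CO2 for 24 hours. Viability was then read by Alamar Blue fluorescence (ex 540/em 590 nm) after 4 h.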

[2] = target: Ba/F3 cells containing Ros1 with a mutation at the gatekeeper residue (L2026M) (Homo sapiens, UniProt P08922, L2026M, cells depend on it, form not given); experiment: Ba/F3-Ros1 cell proliferation assay, L2026M gatekeeper mutant; type: cell-based, murine; settings: without IL-3
In short: as §1

[3] = target: Ba/F3 cells containing Ros1 with G2032R mutation (Homo sapiens, UniProt P08922, G2032R, cells depend on it, form not given); experiment: Ba/F3-Ros1 cell proliferation assay, G2032R crizotinib-resistance mutant; type: cell-based, murine; settings: without IL-3
Experimental: Ba/F3-Ros1 Cell Proliferation Assay
This assay was carried out with Ba/F3 cells containing three different versions of Ros1: the wild-type protein, protein with a mutation at the gatekeeper residue (L2026M), and protein with a mutation identified in a tumor from a patient that became resistant to crizotinib (Xalkori®) treatment (G2032R). Compounds were solubilized in 100% DMSO (dimethyl sulfoxide) and sprayed into polystyrene, tissue culture treated 384-well plates. A 50 μl volume of cell culture medium (phenol red free RPMI-1640, 10% FBS (fetal bovine serum), 2 mM L-Glutamine) containing 20000 Ba/F3-Ros1 cells was added to each well and the plates were placed in an incubator at 37° C. and 5% CO2. After 24 hours, 10 μl of Alamar Blue solution (0.5 mM K3Fe(CN)6, 0.5 mM K4Fe(CN)6, 0.15 mM Resazurin and 100 mM Phosphate Buffer) was added to the wells, incubated for 4 hours at 37° C. and 5% CO2 before RFU's (Relative Fluorescence Units) (ex. 540 nm., em. 590 nm.) were measured in a fluorescence plate reader.

[4] = system: Ba/F3 cells containing Ros1 wild-type protein + IL-3; experiment: Ba/F3-Ros1 cell proliferation counter-screen, wild-type protein in the presence of 10 ng/ml murine IL-3; type: cell-based; settings: Mus musculus, BaF3, 24 h, read-out: BaF3-ROS1 + IL3 pIC50 (converted)
In short: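 Ba/F3 cells expressing wild-type Ros1 were grown with 10 ng/ml murine IL-3 and test compound in RPMI-1640 with 10% FBS and 2 mM L-glutamine for 24 h at 37 °C, 5% CO2. Viability was then read as Alamar Blue (resazurin) fluorescence (ex 540/em 590 nm) after 4 h further incubation.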

[5] = system: HCC78 non-small cell lung cancer cells; experiment: HCC78 cell proliferation assay; type: cell-based; settings: Homo sapiens, HCC78, 96 h, read-out: HCC-78 PROL pEC50 (converted)
In short: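 HCC78 NSCLC cells (~1000/well) in RPMI-1640 with 10% FBS were treated 24 h after seeding and exposed to compound for 4 days at 37 °C. Viability was read by MTT, with absorbance at 538 nm after DMSO/glycine solubilization.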

[6] = system: Ros pY2274 in HCC78 cells; experiment: pROS1 immunofluorescence assay in HCC78 cells; type: cell-based; settings: Homo sapiens, read-out: HCC78-pRos1 pIC50 (converted)
Experimental: pROS1 Immunofluorescence Assay in HCC78 Cells
Approximately 20000 HCC78 non-small cell lung cancer cells in 180 μl of cell culture medium (RPMI-1640, 10% FBS, 2 mM L-Glutamine, 10 mM Hepes, 1 mM sodium pyruvate, 4.5 g/L glucose, 1.5 g/L sodium bicarbonate, 25 μg/ml Gentamycin) were seeded in each well of a 96-well polystyrene, poly-D-lysine coated plate and incubated at 37° C. and 5% CO2. After 24 hours, compounds were diluted in cell culture medium from which 20 μl was added to the wells containing cells and incubated for 4 hours at 37° C. and 5% CO2. The medium was removed and the cells were fixed by adding 100 μl of 5% formaldehyde in TBS (tris-buffered saline) (50 mM Tris.HCl, pH 7.4, 150 mM NaCl) and incubating for 15 minutes at room temperature. The formaldehyde was removed and replaced with methanol for 10 minutes at room temperature, after which the cells were washed 3 times with TBS containing 1% Triton X-100 and incubated in Odyssee (Li-Cor) blocking buffer for 1 hour at room temperature. The cells were then incubated with the primary rabbit antibody directed against Ros pY2274 (cst-3078) diluted 1/200 in blocking buffer for 24 hours at room temperature. The cells were washed three times with TBS containing 0.1% Triton X-100 and incubated with a secondary anti-rabbit antibody conjugated to the fluorescent dye Alexafluor 680 in blocking buffer for 1 hour at room temperature. The cells were washed three times with TBS containing 0.1% Triton X-100 and left to dry before measuring RFUs (Relative Fluorescence Units) at 700 nm using a fluorescence imager.
The same experiment was performed using total Ros1 antibody (sc-6347) diluted 1/1000 instead of Ros1 pY2274 antibody and an anti-goat antibody conjugated to IRDye800cw as a secondary antibody. RFUs were measured at […]. The signals from total Ros1 detection were used to normalize the Ros1 pY2274 values.

[7] = counter-screen, wild-type, 10 ng/ml murine IL-3
[8] = HCC78 cells, 4 hours, Ros pY2274 normalized to total Ros1

T2 sequence (P08922 whole entry, stated change not applied): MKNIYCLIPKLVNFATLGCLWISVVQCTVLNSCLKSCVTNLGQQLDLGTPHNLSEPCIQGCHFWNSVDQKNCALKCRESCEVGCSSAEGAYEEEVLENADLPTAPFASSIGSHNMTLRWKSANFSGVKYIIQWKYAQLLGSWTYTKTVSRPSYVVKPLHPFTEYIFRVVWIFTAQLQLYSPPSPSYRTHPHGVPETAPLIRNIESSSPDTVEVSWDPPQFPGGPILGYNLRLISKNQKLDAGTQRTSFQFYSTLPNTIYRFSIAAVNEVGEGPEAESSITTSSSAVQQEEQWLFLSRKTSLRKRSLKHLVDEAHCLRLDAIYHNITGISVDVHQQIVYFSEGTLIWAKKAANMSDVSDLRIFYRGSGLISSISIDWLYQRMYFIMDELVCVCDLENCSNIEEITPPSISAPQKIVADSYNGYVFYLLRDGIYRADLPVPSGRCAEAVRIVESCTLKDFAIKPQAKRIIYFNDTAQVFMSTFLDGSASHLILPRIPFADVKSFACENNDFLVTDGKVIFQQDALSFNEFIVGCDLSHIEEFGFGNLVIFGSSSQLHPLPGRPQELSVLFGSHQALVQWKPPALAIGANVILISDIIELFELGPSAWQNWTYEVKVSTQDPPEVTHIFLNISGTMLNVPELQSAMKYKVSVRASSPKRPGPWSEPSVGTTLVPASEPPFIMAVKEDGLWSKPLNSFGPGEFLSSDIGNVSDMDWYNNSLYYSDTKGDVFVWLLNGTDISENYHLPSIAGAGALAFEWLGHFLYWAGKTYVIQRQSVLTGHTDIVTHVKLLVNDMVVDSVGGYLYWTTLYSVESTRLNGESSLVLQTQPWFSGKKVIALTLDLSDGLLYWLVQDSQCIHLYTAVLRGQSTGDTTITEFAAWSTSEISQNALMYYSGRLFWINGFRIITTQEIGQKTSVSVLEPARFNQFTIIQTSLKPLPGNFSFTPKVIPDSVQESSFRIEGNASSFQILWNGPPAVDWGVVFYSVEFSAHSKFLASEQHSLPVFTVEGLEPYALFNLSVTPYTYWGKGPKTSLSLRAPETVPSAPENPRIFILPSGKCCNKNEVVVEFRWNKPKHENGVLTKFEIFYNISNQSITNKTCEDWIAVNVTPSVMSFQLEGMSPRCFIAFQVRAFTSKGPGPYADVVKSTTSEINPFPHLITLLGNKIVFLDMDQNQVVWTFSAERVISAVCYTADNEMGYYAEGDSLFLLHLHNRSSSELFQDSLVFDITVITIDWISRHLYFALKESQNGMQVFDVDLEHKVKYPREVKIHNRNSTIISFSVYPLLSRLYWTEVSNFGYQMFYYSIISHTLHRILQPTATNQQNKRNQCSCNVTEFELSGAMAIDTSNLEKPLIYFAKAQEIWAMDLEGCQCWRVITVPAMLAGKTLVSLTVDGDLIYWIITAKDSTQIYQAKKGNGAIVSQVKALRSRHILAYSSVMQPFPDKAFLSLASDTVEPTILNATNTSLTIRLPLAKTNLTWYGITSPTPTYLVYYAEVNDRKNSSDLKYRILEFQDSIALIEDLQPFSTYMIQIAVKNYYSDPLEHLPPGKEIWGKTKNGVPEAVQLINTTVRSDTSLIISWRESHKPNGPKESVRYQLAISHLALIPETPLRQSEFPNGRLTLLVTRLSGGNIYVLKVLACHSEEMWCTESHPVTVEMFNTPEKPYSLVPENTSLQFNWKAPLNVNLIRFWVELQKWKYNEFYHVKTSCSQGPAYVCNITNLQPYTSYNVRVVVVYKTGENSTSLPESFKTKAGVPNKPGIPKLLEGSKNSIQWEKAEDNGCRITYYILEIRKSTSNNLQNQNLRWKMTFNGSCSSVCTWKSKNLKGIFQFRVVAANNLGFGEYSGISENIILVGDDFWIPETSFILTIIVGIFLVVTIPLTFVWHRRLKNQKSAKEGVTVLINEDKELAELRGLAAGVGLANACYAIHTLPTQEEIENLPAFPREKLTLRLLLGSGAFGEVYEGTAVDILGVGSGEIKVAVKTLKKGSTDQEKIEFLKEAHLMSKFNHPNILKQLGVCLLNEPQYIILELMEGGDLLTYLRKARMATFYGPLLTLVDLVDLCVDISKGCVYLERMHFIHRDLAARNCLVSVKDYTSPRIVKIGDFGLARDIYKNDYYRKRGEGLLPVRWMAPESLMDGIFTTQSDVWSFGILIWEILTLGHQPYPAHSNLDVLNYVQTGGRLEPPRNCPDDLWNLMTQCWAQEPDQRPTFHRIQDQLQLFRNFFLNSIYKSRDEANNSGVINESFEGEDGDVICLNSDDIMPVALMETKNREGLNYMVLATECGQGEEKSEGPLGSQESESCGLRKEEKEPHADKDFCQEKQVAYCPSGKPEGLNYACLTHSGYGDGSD
Sequence of Ba/F3 cells containing Ros1 with G2032R mutation (P08922 whole entry G2032R, form open): as the sequence (P08922 whole entry, stated change not applied) above, with G2032R counted along it
Sequence of Ba/F3 cells containing Ros1 with a mutation at the gatekeeper residue (L2026M) (P08922 whole entry L2026M, form open): as the sequence (P08922 whole entry, stated change not applied) above, with L2026M counted along it
T1 sequence (P08922 28-2347): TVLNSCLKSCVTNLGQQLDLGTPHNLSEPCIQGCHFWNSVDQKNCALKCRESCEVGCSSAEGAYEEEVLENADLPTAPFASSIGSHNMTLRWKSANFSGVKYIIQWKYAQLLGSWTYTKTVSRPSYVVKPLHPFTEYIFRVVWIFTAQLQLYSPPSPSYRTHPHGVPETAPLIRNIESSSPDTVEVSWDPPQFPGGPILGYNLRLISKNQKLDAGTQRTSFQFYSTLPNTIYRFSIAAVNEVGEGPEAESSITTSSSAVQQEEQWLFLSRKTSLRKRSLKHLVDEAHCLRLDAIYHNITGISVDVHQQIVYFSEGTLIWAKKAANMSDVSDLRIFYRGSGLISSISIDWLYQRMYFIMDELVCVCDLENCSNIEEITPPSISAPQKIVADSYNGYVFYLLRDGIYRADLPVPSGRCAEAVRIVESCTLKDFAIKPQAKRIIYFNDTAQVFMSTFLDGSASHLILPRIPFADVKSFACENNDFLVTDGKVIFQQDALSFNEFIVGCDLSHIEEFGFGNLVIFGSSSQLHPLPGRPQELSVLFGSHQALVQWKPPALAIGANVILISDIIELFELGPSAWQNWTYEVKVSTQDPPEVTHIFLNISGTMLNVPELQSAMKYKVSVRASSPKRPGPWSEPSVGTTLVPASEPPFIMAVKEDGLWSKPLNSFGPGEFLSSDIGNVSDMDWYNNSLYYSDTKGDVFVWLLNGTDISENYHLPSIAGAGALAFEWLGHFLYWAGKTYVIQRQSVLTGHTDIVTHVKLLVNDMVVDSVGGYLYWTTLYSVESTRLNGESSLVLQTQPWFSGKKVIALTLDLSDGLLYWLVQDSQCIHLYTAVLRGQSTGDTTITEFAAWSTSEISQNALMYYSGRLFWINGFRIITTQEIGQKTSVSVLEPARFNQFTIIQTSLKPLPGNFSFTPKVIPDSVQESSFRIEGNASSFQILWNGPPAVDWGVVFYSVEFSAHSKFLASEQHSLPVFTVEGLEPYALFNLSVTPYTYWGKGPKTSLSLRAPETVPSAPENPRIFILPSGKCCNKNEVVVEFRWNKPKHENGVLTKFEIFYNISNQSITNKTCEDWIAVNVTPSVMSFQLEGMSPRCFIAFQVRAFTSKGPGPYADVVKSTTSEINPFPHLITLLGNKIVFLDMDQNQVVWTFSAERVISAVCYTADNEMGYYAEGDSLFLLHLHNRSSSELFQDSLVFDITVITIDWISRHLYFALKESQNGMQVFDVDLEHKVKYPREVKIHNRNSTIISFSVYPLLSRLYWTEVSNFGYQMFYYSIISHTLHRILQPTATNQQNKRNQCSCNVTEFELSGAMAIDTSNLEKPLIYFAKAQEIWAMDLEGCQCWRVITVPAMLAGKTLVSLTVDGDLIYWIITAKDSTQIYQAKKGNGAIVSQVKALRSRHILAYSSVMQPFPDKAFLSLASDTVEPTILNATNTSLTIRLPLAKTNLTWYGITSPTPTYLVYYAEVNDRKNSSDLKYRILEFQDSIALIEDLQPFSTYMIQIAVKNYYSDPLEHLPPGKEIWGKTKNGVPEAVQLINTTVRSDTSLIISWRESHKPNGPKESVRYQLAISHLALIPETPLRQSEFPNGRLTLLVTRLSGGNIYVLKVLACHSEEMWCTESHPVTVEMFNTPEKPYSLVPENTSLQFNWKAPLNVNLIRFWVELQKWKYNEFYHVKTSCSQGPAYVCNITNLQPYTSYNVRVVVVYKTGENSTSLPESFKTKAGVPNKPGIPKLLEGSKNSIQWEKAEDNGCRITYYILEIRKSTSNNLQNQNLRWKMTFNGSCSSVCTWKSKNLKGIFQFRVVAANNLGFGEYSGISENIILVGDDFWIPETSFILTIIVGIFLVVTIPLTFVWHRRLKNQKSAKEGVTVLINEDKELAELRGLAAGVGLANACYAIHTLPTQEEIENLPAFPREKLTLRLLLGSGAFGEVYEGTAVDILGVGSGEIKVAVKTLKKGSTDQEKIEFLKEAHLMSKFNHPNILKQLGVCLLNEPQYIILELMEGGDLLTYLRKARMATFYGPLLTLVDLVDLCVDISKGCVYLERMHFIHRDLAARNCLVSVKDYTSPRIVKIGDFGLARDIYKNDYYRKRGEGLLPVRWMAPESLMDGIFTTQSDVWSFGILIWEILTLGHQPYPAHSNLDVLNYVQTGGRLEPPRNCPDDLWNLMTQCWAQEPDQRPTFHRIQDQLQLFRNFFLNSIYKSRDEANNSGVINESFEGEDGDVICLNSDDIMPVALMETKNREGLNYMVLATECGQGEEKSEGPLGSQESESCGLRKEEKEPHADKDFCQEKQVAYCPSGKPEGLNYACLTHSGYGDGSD

SMILES | IC50 (Ros1 enzyme) [nM] | BaF3-ROS1-IL3 pIC50 [1] | Ba/F3 Ros1 L2026M (-IL-3) pIC50 [2] | Ba/3 Ros1 G2032R (-IL-3) pIC50 [3] | CC50 [4] [nM] | EC50 [5] [nM] | IC50 ([6]; HCC78, 4 h) [nM] | melting point [°C] | CC50 [4, 7] [nM] | EC50 ([5]; HCC78 cells, 4 days, MTT) [nM] | IC50 [6, 8] [nM]
O=C1NCCn2nc(-c3ccncc3)c(-c3ccc(OCc4ccc(C5CC5)cc4)cc3)c21 [Compound 4] | 39.8 | 7.6 | 7.4 | 6.8 | > 10000 | 200 | 79.4 | 262 | – | – | –
CC(C)c1ccc(COc2ccc(-c3c(-c4ccncc4)nn4c3C(=O)NCC4)c(F)c2)cc1 [Compound 6] | 10 | 7.9 | 7.7 | 7.4 | > 10000 | 63.1 | 15.8 | 271 | – | – | –
CC(C)c1ccc(COc2ccc(-c3c(-c4ccnc(N)c4)nn4c3C(=O)NCC4)cc2)cc1 [Compound 7] | 39.8 | 7.4 | 7.4 | 6.8 | > 10000 | 251 | 100 | 267 | – | – | –
CC(C)(C#N)c1ccc(COc2ccc(-c3c(-c4ccncc4)nn4c3C(=O)NCC4)cc2)cc1 [Compound 10] | 79.4 | 7.1 | 6.9 | 6.6 | > 10000 | 158 | 25.1 | 280 | – | – | –
COc1cc(-c2c(-c3ccncc3)nn3c2C(=O)NCC3)ccc1OCc1ccc(C(C)C)cc1 [Compound 32] | 6.31 | 8.0 | 8.0 | 7.3 | > 10000 | 50.1 | 15.8 | 187 | – | – | –
CC(C)c1ccc(COc2ccc(-c3c(-c4ccncc4)nn4c3C(=O)N(C(C)C)CC4)cc2)cc1 [Compound 49] | 39.8 | 7.3 | 7.2 | 6.9 | > 10000 | 100 | 31.6 | 168 | – | – | –
CC(C)c1ccc(COc2ccc(-c3c(-c4ccncc4)nn4c3C(=O)N(CC3(C)COC3)CC4)cc2)cc1 [Compound 54] | 79.4 | 7.3 | 7.2 | 6.6 | > 10000 | 79.4 | 20 | 204 | – | – | –
CC(C)c1ccc(COc2ccc(-c3c(-c4ccncc4)nn4c3C(=O)NCC4)cn2)cc1 [Compound 71] | 25.1 | 7.7 | 7.6 | 7.0 | > 10000 | 100 | 39.8 | 199 | – | – | –
COc1ccc(COc2ccc(-c3c(-c4ccncc4)nn4c3C(=O)NCC4)cc2)cc1 [Compound 112] | 158 | 6.8 | – | 5.8 | – | – | – | 260 | > 10000 | 1000 | 316
O=C1NCCn2nc(-c3ccncc3)c(-c3ccc(OCc4ccc(OC(F)(F)F)cc4)cc3)c21 [Compound 116] | 126 | 7.3 | 7.3 | 6.6 | > 10000 | 251 | 158 | 260 | – | – | –
CN1CCn2nc(-c3ccncc3)c(-c3ccc(OCc4ccc(C5CC5)nc4)cc3)c2C1=O [Compound 138] | 100 | 6.9 | 6.8 | 6.0 | – | – | – | 175 | > 10000 | 501 | 316
CC(C)c1ccc(COc2ccc(-c3c(-c4ccncn4)nn4c3C(=O)NCC4)cc2)cc1 [Compound 158] | 50.1 | 7.4 | 7.4 | 6.5 | > 10000 | 316 | 126 | – | – | – | –
CC(C)c1ccc(COc2ccc(-c3c(-c4ccncn4)nn4c3C(=O)N(CCO)CC4)cc2)cc1 [Compound 159] | 50.1 | 7.3 | 7.2 | 6.4 | > 10000 | 63.1 | – | 160 | – | – | –
c1cc(-c2nn3c(c2-c2ccc(OCc4ccc(C5CC5)cc4)cc2)CNC2(CC2)C3)ccn1 [Compound 171] | 398 | 6.2 | – | 6.0 | – | – | – | 152 | > 10000 | 1580 | 501
c1cc(-c2nn3c(c2-c2ccc(OCc4ccc(C5CC5)cc4)cc2)CNCC3)ccn1 [Compound 172] | 631 | 6.4 | 6.3 | 5.2 | – | – | – | – | > 10000 | 3980 | 316
CNC(=O)CN1CCn2nc(-c3ccncc3)c(-c3ccc(OCc4ccc(C(C)C)cc4)cc3)c2C1 [Compound 174] | 200 | 6.8 | 6.8 | 6.4 | – | – | – | 185 | > 10000 | 794 | 251
O=C1NC2(CNC2)Cn2nc(-c3ccncc3)c(-c3ccc(OCc4ccc(C5CC5)cc4)cc3)c21 [Compound 183] | 200 | 6.0 | – | 5.6 | – | – | – | 173 | > 10000 | 1580 | 398
